Assay results: patent US8519163B2, “Anti-tumor activity of AECHL-1, novel triterpenoid isolated from Ailanthus excelsa in vitro and in vivo” (National Centre for Cell Science, priority 2008, dated 2013)

Assays:
B16F10 melanoma cells = test: In vivo allograft tumor model; design: species or system C57B1/6 mice
Procedure: (§1) The data reported for tumor volumes are expressed as mean±SEM. Statistical differences were determined by ANOVA and post test applied was Tukey-Kramer multiple comparison Test. For Tumor to body weight ratio post test applied was Dunnett multiple comparisons test.

p21 = test: Western blot of tumor homogenates of C57B1/6 mice; type: in vivo, mouse; settings: tumor of C57 mice, 100 μg
Procedure: (§2) Prior to immunoblot analysis, tumor segments stored at −80° C. were thawed, washed, minced and homogenized in lysis buffer (120 mM NaCl, 1.0% Triton X 100, 20 mM Tris-HCl, pH 7.5, 10% glycerol, 2 mM EDTA, Protease inhibitor cocktail, Roche) using a Polytron homogenization device. Lysates were incubated at 4° C. for 30 min and centrifuged at 14000 r.p.m. in an Eppendorf micro centrifuge for 15 min. Proteins were isolated in solublised form. Protein concentrations were measured by Bradford assay (Bio-Rad protein assay kit) and stored at −80° C. For immunobloting, 60 μg of total protein from the tumor lysates were used Proteins were resolved in a 10% SDS-polyacrylamide gel, transferred to the immobilon-P […] membrane and blocked with 5% (wt/v) non fat dry milk powder (Sigma) in TBST buffer (10 mM Tris pH 7.6, 150 mM NaCl and 0.1% Tween-20) for three hours at room temperature and then incubated with primary antibodies p53, pp53, p21, Cyclin D1, CDK4 and c-Myc in TBST for 3 h and with actin for 1 hour at room temperature. The membrane was incubated further with the secondary antibody HRP-conjugated (BD Bioscience) at 1:10000 dilution for 1 h at room temperature. Following each antibody incubation, the membrane was washed thoroughly with TBST buffer 3 times. The protein bands were visualized using the enhanced chemiluminescence substrate reaction (Pierce) according to the manufacturer's instructions using X-OMAT AR5 film (Kodak)

p53 = test: Western blot of tumor homogenates of C57B1/6 mice; type: in vivo, mouse; settings: tumor of C57 mice, 100 μg, compared with control
Procedure: as §2

pp53 = test: Western blot of tumor homogenates of C57B1/6 mice; type: in vivo, mouse; settings: tumor of C57 mice, 100 μg
Procedure: as §2

MCF-7 cells = test: Cell cycle analysis by flow cytometry; type: cell-based, human; settings: 24 h
Procedure: The cell cycle analysis of MCF-7, B16F10 MDA-MB-231 and PC3 cells was done by flow cytometry. […] Cells were harvested with trypsin (0.05%), 0.02% EDTA, 0.05% glucose and a single-cell suspension was prepared. Cells were washed and were pelleted by centrifugation (1000×g for 2 min) and fixed in 70% ethanol while vortexing and stored at 4° C. for 1 hour. Fixed cells were pelleted by centrifugation, to remove ethanol and washed with PBS. Cells were re-suspended in PBS containing 50 μg/ml propidium iodide, 0.1 g/L RNase and 1% BSA, incubated for 30 min at 37° C. in the dark, and analyzed with flow cytometry (FACS Vantage-BD Sciences, USA) equipped with an argon laser at 488 nm. The data was analyzed using Cell Quest software for determining the percent population in different phases of cell cycle.

[1] = test system: cellular microtubule network; test: Immunocytochemistry, microtubule network in MCF-7 cells; type: cell-based, human; settings: paclitaxel 1-20 μM, AECHL-1 2-40 μM, 24 h, confocal microscopy
Procedure: Immunocytochemistry was performed as described previously. […] Cells were incubated with primary anti-p53 antibodies (1:100; Abcam) and anti-α-tubulin antibodies (1:10000; Sigma chemical Co.) for 1 hour at room temperature. After washing with PBS, cells were incubated with CY2-conjugated secondary antibodies (1:200; Chemicon, Germany) and Alexa-conjugated secondary antibodies (1:10000; Sigma, St. Louis, Mo.) for 45 minutes and nuclear staining was done with DAPI. Images were captured under confocal microscope.
The tumor suppressor p53 plays a critical role in preventing human cancer formation. It translocates into the nucleus and works as a transcription factor by upregulating cell cycle regulatory proteins and induces cell cycle arrest and/or programmed cell death (apoptosis) (11). […] After 24 h of incubation, the p53 translocation in the nucleus (green fluorescence) and microtubule network (red fluorescence) was visualized by confocal microscopy.

MCF-7 = test: In vivo xenograft tumor model; design: species or system athymic nude mice
Procedure: as §1

## N.N.[Cl][Pt][Cl] [Cisplatin, reference compound]
B16F10 melanoma cells; B16F10 allograft, 100 μg intra-tumor for 12 days, day 18
  tumor size reduced by: 93.13±0.539%
B16F10 melanoma cells; B16F10 allograft, 100 μg, day 24
  tumor volume on day 24: decreased
B16F10 melanoma cells; C57 mice, 100 μg
  histological examination of tumor tissue: significant increase in necrotic nuclei with decreased tumor cell density
p21
  expression of p21: increased p21 expression
p53
  p53 protein expression: increasing expression
pp53
  phosphorylation of p53 (pp53): did not show any change

## CC(=O)O[C@H]1C(=O)[C@@]2(C)[C@H]([C@H](OC(=O)c3ccccc3)[C@]3(O)C[C@H](OC(=O)[C@H](O)[C@@H](NC(=O)c4ccccc4)c4ccccc4)C(C)=C1C3(C)C)[C@]1(OC(C)=O)CO[C@@H]1C[C@@H]2O [Paclitaxel, reference compound]
MCF-7 cells; MCF-7, 1 μM
  Phase of cell cycle (% of cells) G2/M: 72.55%
  Phase of cell cycle (% of cells) S: 18.65%
  Phase of cell cycle (% of cells) Sub G0: 3.45%
MCF-7 cells; MCF-7, 2 μM
  Phase of cell cycle (% of cells) G1: 7.41%
  Phase of cell cycle (% of cells) G2/M: 63.71%
  Phase of cell cycle (% of cells) S: 22.89%
  Phase of cell cycle (% of cells) Sub G0: 5.21%
MCF-7 cells; MCF-7, 5 μM
  Phase of cell cycle (% of cells) G2/M: 72.86%
  Phase of cell cycle (% of cells) S: 18.35%
  Phase of cell cycle (% of cells) Sub G0: 3.98%
MCF-7 cells; MCF-7, 10 μM
  Phase of cell cycle (% of cells) G2/M: 69.36%
  Phase of cell cycle (% of cells) S: 18.96%
  Phase of cell cycle (% of cells) Sub G0: 3.47%
[1]
  effect on microtubule network: microtubule polymerization with an increase in the density of cellular microtubules
MCF-7; MCF-7 xenograft, 20 μg/0.05 ml intra-tumor for 10 days
  tumor size reduced by: 14.19±0.32%
MCF-7; nude mice, 20 μg
  histological examination of tumor tissue: lowered the tumor cell density
